Source: patent US20230063449A1, “DRG-MDM2-5 FOR USE AS A NOVEL MOUSE DOUBLE MINUTE 2 (MDM2) INHIBITOR” (BAHCESEHIR UNIVERSITESI, priority 2020, published 2023)

Legend:
[1] = target: MDM2 protein (Homo sapiens, UniProt Q00987); conditions: compared with natural p53 peptide; cited from earlier work
[2] = system: MDA-MB231 cell lines; experiment: MTT cell viability assay (IC50); format: cell-based; conditions: Homo sapiens, MDA-MB-231, single dose of treatment, 10^−9 to 10^−4 M, 570 nm absorbance (FIG. 1), read-out: half-maximal inhibitory concentration (IC50)
Method: (§1) HCT 116 colon cancer and MDA-MB231 breast cancer cell lines are used in cell culture experiments.
Cells were treated with high-glucose DMEM medium (Biosera) supplemented with 10% FBS (Gibco) and 1× penicillin/streptomycin (Multicell). The assay was designed to contain 10,000 cells for each well of 24-well cell culture plates before being treated with inhibitors.
Compound of formula I was dissolved with DMSO as 20 mM stock. 24 hours later, the solution was diluted in DMEM with 10% FBS and final concentration of vehicle DMSO was 0.5% at maximum. Therefore, the vehicle group included 0.5% DMSO concentration in experiments. Intensive cultivation of cells causes a decrease in proliferation capacity.
The MTT cell viability assay was used to detect values of half-maximal inhibitory concentration (IC50). Different concentrations of compound of formula I ranging between 10^−9 to 10^−4 M were tested on MDA-MB231 cell lines with single dose of treatment. 570 nm absorbance values were recorded and IC50 values were calculated by dose response—inhibition curves and nonlinear regression analysis on Graphpad Prism 8 software.

[3] = system: HCT 116 colon cancer and MDA-MB231 breast cancer cell lines; experiment: MTT cell proliferation inhibition analysis; format: cell-based; conditions: 100 μM; MTT at 12 h, 24 h, 48 h and 72 h; ANOVA, p<0.001 (FIG. 2)
Method: as §1
For proliferation inhibition analysis, cells were seeded in 24 well plates at 1×10^4 cells/well cells overnight without drug treatment. During the cell proliferation experiments, we performed five days of treatment in each cell line and repeated the experiments three times to check each experiment. No significant difference in cell viability was observed after the third day. Therefore, cells with different drug concentrations were treated for two days. After 48 hours, MTT was applied to the cells and incubated at 37° C. for 4 hours, formazan was solubilized with DMSO (Sigma-Aldrich, St. Louis, USA) and absorbance was measured at 570 nm.
Molecule concentration was 100 μM, the lower concentrations were not shown. Vehicle represents the groups treated with only %0.5 DMSO and Untreated represents no molecule treated group. Molecule responses were evaluated by cell viability which is obtained by spectrophotometric analysis of cells upon MTT treatment at 12 h, 24 h, 48 h and 72 h. […] Statistical significance in graphs was determined by comparing each treatment group with DMSO control using ANOVA testing and significance is considered as p<0.001 (FIG. 2).

Sequence of MDM2 protein (Q00987 whole entry, species assumed): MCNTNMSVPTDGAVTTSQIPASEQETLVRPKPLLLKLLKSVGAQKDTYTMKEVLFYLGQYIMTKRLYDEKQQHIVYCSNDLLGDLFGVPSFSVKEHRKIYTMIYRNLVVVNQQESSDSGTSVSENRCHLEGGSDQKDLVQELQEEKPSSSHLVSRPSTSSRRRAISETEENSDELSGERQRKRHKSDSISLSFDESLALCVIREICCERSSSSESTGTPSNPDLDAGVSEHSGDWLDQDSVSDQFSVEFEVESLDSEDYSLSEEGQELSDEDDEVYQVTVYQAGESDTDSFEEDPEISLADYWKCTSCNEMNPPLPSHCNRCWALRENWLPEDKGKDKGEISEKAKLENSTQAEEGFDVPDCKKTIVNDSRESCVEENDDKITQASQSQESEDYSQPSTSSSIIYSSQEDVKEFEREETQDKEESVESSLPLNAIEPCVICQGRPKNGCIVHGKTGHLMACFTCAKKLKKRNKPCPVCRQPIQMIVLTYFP

Row | Compound | binding affinity to MDM2 protein relative to a natural p53 peptide [1] [fold] | IC50 [2] [µM] | cell viability (MTT) compared to vehicle and untreated groups [3]
1 | MI-319 | 500 | – | –
2 | O=C(CSCc1ccccc1)NC(CC1CNc2ccccc21)C(=O)O (stereo not drawn) [compound of formula I] | – | 98 | statistically significant difference compared to vehicle and untreated groups
